Test results as given in publication PMC4503722, “Novel Phenotypic Outcomes Identified for a Public Collection of Approved Drugs from a Publicly Accessible Panel of Assays” (PLoS ONE, 2015).

Tests used:
[1] = system: DLD-1; experiment: cells; assay type: cell-based; conditions: basal; for Basal_Viability ATP DLD-1 IC50/EC50 / IC50: assay number 23; for IC50: read-out: Basal_Viability ATP DLD-1 summarized IC50
[2] = system: SW480; experiment: cells; assay type: cell-based; conditions: basal; for Basal_Viability ATP SW480 IC50/EC50 / IC50: assay number 24; for IC50: read-out: Basal_Viability ATP SW480 summarized IC50
[3] = system: endothelial tube formation in co-cultures of ECFCs and ADSCs treated with VEGF; experiment: cells; assay type: cell-based, human; conditions: for IC50: read-out: VEGF_ADSC\ECFC Angio CD31 TubeArea summarized IC50
[4] = system: HT-29; experiment: cells; assay type: cell-based; conditions: basal; for Basal_Viability ATP HT-29 IC50/EC50 / IC50: assay number 28; for IC50: read-out: Basal_Viability ATP HT-29 summarized IC50
[5] = system: SNU-C1; experiment: cells; assay type: cell-based; conditions: basal; for Basal_Viability ATP SNU-C1 IC50/EC50 / IC50: assay number 30; for IC50: read-out: Basal_Viability ATP SNU-C1 summarized IC50
[6] = system: HCT116; experiment: cells; assay type: cell-based; conditions: basal; for Basal_Viability ATP HCT116 IC50/EC50 / IC50: assay number 25; for IC50: read-out: Basal_Viability ATP HCT116 summarized IC50
[7] = system: ECFC/ADSC co-culture cell nuclei number; conditions: for IC50: read-out: VEGF_ADSC\ECFC Angio Hoechst NucArea summarized IC50
[8] = system: HCT116 cells treated with a GSK3β inhibitor; experiment: cells; assay type: cell-based; conditions: for IC50/EC50, GSK3b inh pretreated_Viability ATP HCT116 (assay number 26): GSK3b inh pretreated; for GSK3b inh pretreated_Viability ATP HCT116 IC50/EC50 / IC50: assay number 26, GSK3b inhibitor pretreated; for IC50: read-out: GSK3b inh pretreated_Viability ATP HCT116 summarized IC50
[9] = system: RKO; experiment: cells; assay type: cell-based; conditions: basal; for Basal_Viability ATP RKO IC50/EC50 / IC50: assay number 29; for IC50: read-out: Basal_Viability ATP RKO summarized IC50
[10] = system: Colo320; experiment: cells; assay type: cell-based; conditions: basal; for Basal_Viability ATP Colo 320 IC50/EC50 / IC50: assay number 27; for IC50: read-out: Basal_Viability ATP Colo 320 summarized IC50

Structure (SMILES) | Basal_Viability ATP DLD-1 IC50/EC50 [1] [µM] | Basal_Viability ATP SW480 IC50/EC50 [2] [µM] | VEGF_ADSC\ECFC Angio CD31 TubeArea IC50/EC50 [3] [µM] | Basal_Viability ATP HT-29 IC50/EC50 [4] [µM] | Basal_Viability ATP SNU-C1 IC50/EC50 [5] [µM] | Basal_Viability ATP HCT116 IC50/EC50 [6] [µM] | VEGF_ADSC\ECFC Angio Hoechst NucArea IC50/EC50 [7] [µM] | GSK3b inh pretreated_Viability ATP HCT116 IC50/EC50 [8] [µM] | Basal_Viability ATP RKO IC50/EC50 [9] [µM] | Basal_Viability ATP Colo 320 IC50/EC50 [10] [µM] | further results
Cc1cccc(Nc2cc(Cl)nc(SCC(=O)O)n2)c1C [NCGC00014702-15] | – | – | – | – | – | – | – | – | – | – | IC50/EC50, Basal_Viability ATP DLD-1 (assay number 23) [1]: > 20 µM; IC50/EC50, Basal_Viability ATP SW480 (assay number 24) [2]: > 20 µM; IC50/EC50, VEGF_ADSC\ECFC Angio CD31 TubeArea (assay number 2) [3]: > 10 µM; IC50/EC50, Basal_Viability ATP HT-29 (assay number 28) [4]: > 20 µM; IC50/EC50, Basal_Viability ATP SNU-C1 (assay number 30) [5]: > 20 µM; IC50/EC50, Basal_Viability ATP HCT116 (assay number 25) [6]: > 20 µM; IC50/EC50, VEGF_ADSC\ECFC Angio Hoechst NucArea (assay number 3) [7]: > 10 µM; IC50/EC50, GSK3b inh pretreated_Viability ATP HCT116 (assay number 26) [8]: > 20 µM; IC50/EC50, Basal_Viability ATP RKO (assay number 29) [9]: > 20 µM; IC50/EC50, Basal_Viability ATP Colo 320 (assay number 27) [10]: > 20 µM
CN1CCN(C2Cc3ccccc3Sc3ccc(Cl)cc32)CC1.O=C(O)/C=C\C(=O)O (stereo not shown) [NCGC00015759-05] | > 20 | 6.3146 | 5.2302 | 8.001 | 7.8734 | 9.1662 | > 10 | 8.3951 | > 20 | > 6.6667 | –
CCCn1cnc2c1c(=O)n(CCCCC(C)=O)c(=O)n2C [NCGC00015861-09] | > 20 | > 20 | > 10 | > 20 | > 20 | > 20 | > 10 | > 20 | > 20 | > 20 | –
O=C(CCCN1CCC(O)(c2cccc(C(F)(F)F)c2)CC1)c1ccc(F)cc1 [NCGC00015983-04] | > 20 | > 20 | > 10 | > 20 | > 20 | > 20 | > 10 | > 20 | > 20 | > 20 | –
CSc1ccc2c(c1)N(CCC1CCCCN1C)c1ccccc1S2 (stereo not shown) [NCGC00016059-13] | > 20 | 3.7076 | > 10 | 5.8969 | 2.905 | > 20 | 9.242 | 8.1146 | 5.4868 | 7.9244 | –
COc1ccc2c(c1)c1c3n2CCN(C)C3=NCC1 [NCGC00072886-03] | > 20 | > 20 | > 10 | > 20 | > 20 | > 20 | > 10 | > 20 | > 20 | > 20 | –
CNC(=O)Oc1cccc2ccccc12 [NCGC00090680-06] | – | – | – | – | – | – | – | – | – | – | IC50 [1]: > 20 µM; IC50 [2]: > 20 µM; IC50 [3]: > 10 µM; IC50 [4]: > 20 µM; IC50 [5]: > 20 µM; IC50 [6]: > 20 µM; IC50 [7]: > 10 µM; IC50 [8]: > 20 µM; IC50 [9]: > 20 µM; IC50 [10]: > 20 µM
COC(=O)c1ccccc1C(=O)OC [NCGC00090692-06] | – | – | – | – | – | – | – | – | – | – | IC50 [1]: > 20 µM; IC50 [2]: > 20 µM; IC50 [3]: > 10 µM; IC50 [4]: > 20 µM; IC50 [5]: > 20 µM; IC50 [6]: > 20 µM; IC50 [7]: > 10 µM; IC50 [8]: > 20 µM; IC50 [9]: > 20 µM; IC50 [10]: > 20 µM
CC1=C(/C=C/C(C)=C/C=C/C(C)=C/C(=O)Nc2ccc(O)cc2)C(C)(C)CCC1 [NCGC00090752-12] | – | – | – | – | – | – | – | – | – | – | IC50/EC50, Basal_Viability ATP DLD-1 (assay number 23) [1]: 9.4899 µM; IC50/EC50, Basal_Viability ATP SW480 (assay number 24) [2]: 4.8504 µM; IC50/EC50, VEGF_ADSC\ECFC Angio CD31 TubeArea (assay number 2) [3]: 1.3414 µM; IC50/EC50, Basal_Viability ATP HT-29 (assay number 28) [4]: 2.1199 µM; IC50/EC50, Basal_Viability ATP SNU-C1 (assay number 30) [5]: 6.6943 µM; IC50/EC50, Basal_Viability ATP HCT116 (assay number 25) [6]: 5.2999 µM; IC50/EC50, VEGF_ADSC\ECFC Angio Hoechst NucArea (assay number 3) [7]: 6.2365 µM; IC50/EC50, GSK3b inh pretreated_Viability ATP HCT116 (assay number 26) [8]: 4.9507 µM; IC50/EC50, Basal_Viability ATP RKO (assay number 29) [9]: 1.718 µM; IC50/EC50, Basal_Viability ATP Colo 320 (assay number 27) [10]: 3.2421 µM
CCCCCCCCOC(=O)c1ccccc1C(=O)OCCCCCCCC [NCGC00090781-05] | > 20 | > 20 | > 10 | > 20 | > 20 | > 20 | > 10 | > 20 | > 20 | > 20 | –
CCOC(=O)c1ccccc1C(=O)OCC [NCGC00090974-06] | > 20 | > 20 | > 10 | > 20 | > 20 | > 20 | > 10 | > 20 | > 20 | > 20 | –
CC/C=C\C/C=C\C/C=C\CCCCCCCC(=O)O [NCGC00091058-11] | – | – | – | – | – | – | – | – | – | – | IC50/EC50, Basal_Viability ATP DLD-1 (assay number 23) [1]: > 20 µM; IC50/EC50, Basal_Viability ATP SW480 (assay number 24) [2]: > 20 µM; IC50/EC50, VEGF_ADSC\ECFC Angio CD31 TubeArea (assay number 2) [3]: > 10 µM; IC50/EC50, Basal_Viability ATP HT-29 (assay number 28) [4]: > 20 µM; IC50/EC50, Basal_Viability ATP SNU-C1 (assay number 30) [5]: > 20 µM; IC50/EC50, Basal_Viability ATP HCT116 (assay number 25) [6]: > 20 µM; IC50/EC50, VEGF_ADSC\ECFC Angio Hoechst NucArea (assay number 3) [7]: > 10 µM; IC50/EC50, GSK3b inh pretreated_Viability ATP HCT116 (assay number 26) [8]: > 20 µM; IC50/EC50, Basal_Viability ATP RKO (assay number 29) [9]: > 20 µM; IC50/EC50, Basal_Viability ATP Colo 320 (assay number 27) [10]: > 20 µM
CCCCCCCC(=O)OCC(COC(=O)CCCCCCC)OC(=O)CCCCCCC [NCGC00091285-03] | > 20 | > 20 | > 10 | > 20 | > 20 | > 20 | > 10 | > 20 | > 20 | > 20 | –
